Assay results: publication PMC12827894, “Structure-guided design of picomolar-level macrocyclic TRPC5 channel inhibitors with antidepressant activity” (Acta Pharmaceutica Sinica. B, 2025)

What was measured:
[1] = target: T1, AR (Homo sapiens, UniProt P10275); assay: cell-based; format: cell-based
T1 construct: purchased ICE Bioscience ICESTP™ SafetyOne44 Panel

[2] = target: T2, MAO A (Homo sapiens, UniProt P21397); assay: SafetyOne44 panel: MAO A; format: biochemical; conditions: 10 μmol/L, read-out: Antagonist JDIC-127 @10 μmol/L
T2 construct: purchased ICE Bioscience ICESTP™ SafetyOne44 Panel

[3] = target: T3, δOR (Homo sapiens, UniProt P41143); assay: cell-based; format: cell-based
T3 construct: purchased ICE Bioscience ICESTP™ SafetyOne44 Panel
T3 sequence (P41143 whole entry): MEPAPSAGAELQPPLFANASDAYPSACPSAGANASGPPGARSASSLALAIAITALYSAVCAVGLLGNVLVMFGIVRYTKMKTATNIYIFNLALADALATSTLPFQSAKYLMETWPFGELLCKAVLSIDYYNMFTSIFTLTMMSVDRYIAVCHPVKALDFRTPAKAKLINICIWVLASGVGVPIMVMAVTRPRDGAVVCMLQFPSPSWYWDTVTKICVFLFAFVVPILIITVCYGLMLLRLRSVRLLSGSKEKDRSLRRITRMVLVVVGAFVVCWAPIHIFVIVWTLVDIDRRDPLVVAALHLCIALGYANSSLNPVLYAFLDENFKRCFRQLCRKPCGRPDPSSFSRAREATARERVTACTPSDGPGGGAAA

[4] = target: T4, 5-HT2B (Homo sapiens, UniProt P41595); assay: cell-based; format: cell-based; conditions: 5-HT2B, 10 μmol/L
T4 construct: purchased ICE Bioscience ICESTP SafetyOne44 Panel
T4 sequence (P41595 whole entry): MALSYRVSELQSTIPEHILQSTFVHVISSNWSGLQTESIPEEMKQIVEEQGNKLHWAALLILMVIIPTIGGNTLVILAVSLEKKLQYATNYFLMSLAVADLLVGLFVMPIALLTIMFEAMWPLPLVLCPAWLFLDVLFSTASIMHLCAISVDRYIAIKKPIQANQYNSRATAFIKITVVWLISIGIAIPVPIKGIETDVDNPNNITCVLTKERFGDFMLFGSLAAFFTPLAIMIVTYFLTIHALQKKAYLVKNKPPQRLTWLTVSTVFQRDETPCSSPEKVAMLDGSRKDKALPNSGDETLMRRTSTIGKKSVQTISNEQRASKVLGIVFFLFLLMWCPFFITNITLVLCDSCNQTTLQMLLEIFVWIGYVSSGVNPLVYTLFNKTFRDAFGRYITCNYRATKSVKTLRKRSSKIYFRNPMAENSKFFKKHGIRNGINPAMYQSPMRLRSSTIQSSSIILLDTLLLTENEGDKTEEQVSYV

[5] = target: T5, nAChRα4β2 (Homo sapiens, UniProt P17787+P43681); assay: SafetyOne44 panel ion channels: nAChRα4β2; format: cell-based; conditions: 5 μmol/L
T5 construct: ICE Bioscience ICESTP SafetyOne44 Panel
T5 sequence (P43681 29-627 limits assumed): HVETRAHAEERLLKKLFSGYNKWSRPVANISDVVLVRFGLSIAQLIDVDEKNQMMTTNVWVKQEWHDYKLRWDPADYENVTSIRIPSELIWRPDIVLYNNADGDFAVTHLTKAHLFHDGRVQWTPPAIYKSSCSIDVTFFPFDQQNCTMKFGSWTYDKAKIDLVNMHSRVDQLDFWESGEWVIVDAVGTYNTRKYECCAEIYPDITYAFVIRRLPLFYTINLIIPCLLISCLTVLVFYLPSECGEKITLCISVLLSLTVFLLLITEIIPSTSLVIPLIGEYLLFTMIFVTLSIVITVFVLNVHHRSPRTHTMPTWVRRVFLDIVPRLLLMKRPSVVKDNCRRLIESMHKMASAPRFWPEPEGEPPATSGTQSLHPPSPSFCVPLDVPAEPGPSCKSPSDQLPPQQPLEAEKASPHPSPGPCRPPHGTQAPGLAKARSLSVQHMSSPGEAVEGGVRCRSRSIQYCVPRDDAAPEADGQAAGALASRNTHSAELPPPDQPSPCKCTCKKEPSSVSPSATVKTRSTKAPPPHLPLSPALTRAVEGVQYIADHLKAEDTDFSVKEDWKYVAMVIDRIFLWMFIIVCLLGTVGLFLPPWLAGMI
T5 sequence (P17787 26-502): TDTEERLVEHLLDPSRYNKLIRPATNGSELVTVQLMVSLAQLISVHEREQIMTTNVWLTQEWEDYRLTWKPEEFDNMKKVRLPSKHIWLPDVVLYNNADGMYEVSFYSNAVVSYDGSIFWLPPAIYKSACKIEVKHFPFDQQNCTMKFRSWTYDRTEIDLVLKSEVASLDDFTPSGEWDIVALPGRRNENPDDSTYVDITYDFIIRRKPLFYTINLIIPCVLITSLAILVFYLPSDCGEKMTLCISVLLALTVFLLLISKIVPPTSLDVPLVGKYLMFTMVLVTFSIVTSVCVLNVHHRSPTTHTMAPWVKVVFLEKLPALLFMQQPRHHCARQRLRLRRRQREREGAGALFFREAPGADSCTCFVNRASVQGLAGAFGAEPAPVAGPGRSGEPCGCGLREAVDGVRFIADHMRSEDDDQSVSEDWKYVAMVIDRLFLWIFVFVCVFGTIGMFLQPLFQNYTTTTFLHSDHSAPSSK

[6] = target: T6, TRPC1/4 (Homo sapiens, UniProt P48995+Q9UBN4); assay: Whole-cell patch-clamp, TRPC1/4 heteromer, 100 nmol/L EA; format: cell-based; conditions: read-out: IC50, TRPC1/4
T6 construct: expressed in transfected cells; host or cells: HEK293T
Text: Given that TRPC4 and TRPC5 are highly similar and often form heteromeric with TRPC1, we evaluated JDIC-127's activity on TRPC4, TRPC1/4, and TRPC1/5 using whole-cell patch-clamp recordings under agonist stimulation with 100 nmol/L EA in HEK293T cells. […].
For electrophysiological activity testing of compounds against TRPC4 and TRPC5, stably expressed TRPC5 or TRPC4 cells were used for whole-cell patch-clamp recordings, employing a HEKA EPC10 amplifier and […] software (https://www.heka.com/downloads/downloads_main.html#down_patchmaster). Prior to recording, cells were induced with 1 μg/mL tetracycline for 24 h. For TRPC1/4 or TRPC1/5 heteromers, plasmids TRPC1 and TRPC5 or TRPC1 and TRPC4 were co-transfected into HEK293T cells. After 48 to 72 h of transfection, testing was performed. A 1-s ramp protocol from −100 to +100 mV at 0.2 Hz was applied, as previously described. The extracellular solution consisted of 140 mmol/L NaCl, 1 mmol/L MgCl2, 2 mmol/L CaCl2, 10 mmol/L Hepes, 5 mmol/L KCl, and 10 mmol/L D-glucose, with pH adjusted to 7.4 using NaOH. […] The half-maximal inhibitory concentration (IC50) of drugs was determined by recording currents at a +100 mV pulse and analyzing current amplitudes at varying drug concentrations, with IC50 values calculated using the Hill equation. […]

[7] = target: T7, CCK1 (Homo sapiens, UniProt P32238); assay: SafetyOne44 panel: CCK1; format: cell-based; conditions: 10 μmol/L
T7 construct: purchased ICE Bioscience ICESTP™ SafetyOne44 Panel
T7 sequence (P32238 1-428): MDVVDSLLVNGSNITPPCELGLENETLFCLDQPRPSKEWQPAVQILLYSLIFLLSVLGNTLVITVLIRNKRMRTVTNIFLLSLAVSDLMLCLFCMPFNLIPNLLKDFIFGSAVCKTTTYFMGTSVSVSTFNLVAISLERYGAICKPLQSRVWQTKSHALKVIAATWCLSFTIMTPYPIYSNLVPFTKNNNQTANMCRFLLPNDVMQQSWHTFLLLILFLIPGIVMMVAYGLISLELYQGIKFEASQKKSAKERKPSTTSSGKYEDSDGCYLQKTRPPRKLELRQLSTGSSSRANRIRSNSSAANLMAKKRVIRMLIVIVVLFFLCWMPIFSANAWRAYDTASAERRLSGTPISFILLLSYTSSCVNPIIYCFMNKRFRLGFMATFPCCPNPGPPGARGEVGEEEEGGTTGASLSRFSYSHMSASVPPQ

[8] = target: T8, CB1 (Homo sapiens, UniProt P21554); assay: cell-based; format: cell-based
T8 construct: purchased ICE Bioscience ICESTP™ SafetyOne44 Panel
T8 sequence (P21554 whole entry): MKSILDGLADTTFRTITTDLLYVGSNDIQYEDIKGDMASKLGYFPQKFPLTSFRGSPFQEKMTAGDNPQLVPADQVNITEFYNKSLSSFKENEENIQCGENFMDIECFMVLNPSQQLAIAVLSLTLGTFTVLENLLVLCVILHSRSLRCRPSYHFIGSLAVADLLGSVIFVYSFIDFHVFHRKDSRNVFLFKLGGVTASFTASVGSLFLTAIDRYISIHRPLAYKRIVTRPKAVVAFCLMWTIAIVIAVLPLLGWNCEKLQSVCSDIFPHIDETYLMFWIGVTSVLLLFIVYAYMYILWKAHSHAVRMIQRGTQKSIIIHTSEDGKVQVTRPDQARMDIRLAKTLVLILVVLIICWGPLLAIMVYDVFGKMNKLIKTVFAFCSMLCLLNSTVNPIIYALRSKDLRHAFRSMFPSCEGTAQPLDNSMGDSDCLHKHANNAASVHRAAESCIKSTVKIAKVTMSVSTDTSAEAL

[9] = system: GABAA; format: cell-based
[10] = target: T9, GR (Homo sapiens, UniProt P04150); assay: SafetyOne44 panel: GR; format: cell-based
T9 construct: purchased ICE Bioscience ICESTP™ SafetyOne44 Panel

[11] = target: COX2 (Homo sapiens, UniProt P35354); assay: biochemical; conditions: read-out: Antagonist JDIC-127 @10 μmol/L
[12] = target: T10, β1 (Homo sapiens, UniProt P08588); assay: SafetyOne44 panel: β1; format: cell-based
T10 construct: purchased ICE Bioscience ICESTP™ SafetyOne44 Panel
T10 sequence (P08588 whole entry): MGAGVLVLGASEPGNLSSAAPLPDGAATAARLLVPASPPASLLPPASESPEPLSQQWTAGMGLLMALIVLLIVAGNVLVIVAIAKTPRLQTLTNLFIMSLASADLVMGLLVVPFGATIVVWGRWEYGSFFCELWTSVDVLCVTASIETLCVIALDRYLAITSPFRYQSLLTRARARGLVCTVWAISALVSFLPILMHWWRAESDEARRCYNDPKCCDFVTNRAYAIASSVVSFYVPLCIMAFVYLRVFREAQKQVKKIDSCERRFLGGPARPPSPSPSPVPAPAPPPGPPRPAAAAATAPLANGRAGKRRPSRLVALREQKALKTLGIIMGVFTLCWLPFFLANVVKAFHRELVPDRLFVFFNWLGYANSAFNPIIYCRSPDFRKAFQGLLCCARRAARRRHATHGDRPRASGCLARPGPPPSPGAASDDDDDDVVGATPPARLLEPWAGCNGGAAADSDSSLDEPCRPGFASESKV

[13] = target: T11, TRPC5 Q573A (Homo sapiens, UniProt Q9UL62, Q573A); assay: Inhibition of TRPC5 mutant Q573A; format: cell-based; conditions: TRPC5 Q573A vs wild type
T11 construct: full-length wild-type or mutant TRPC5 was cloned into a pcDNA3.1 vector; expressed in transfected cells; host or cells: HEK293T

[14] = system: C57BL/6 mice; assay: Forced swim test (FST); format: in vivo; conditions: 0.3 or 3 mg/kg p.o., 14 days
[15] = target: T12, M2 (Homo sapiens, UniProt P08172); assay: cell-based; format: cell-based
T12 construct: purchased ICE Bioscience ICESTP SafetyOne44 Panel
T12 sequence (P08172 whole entry): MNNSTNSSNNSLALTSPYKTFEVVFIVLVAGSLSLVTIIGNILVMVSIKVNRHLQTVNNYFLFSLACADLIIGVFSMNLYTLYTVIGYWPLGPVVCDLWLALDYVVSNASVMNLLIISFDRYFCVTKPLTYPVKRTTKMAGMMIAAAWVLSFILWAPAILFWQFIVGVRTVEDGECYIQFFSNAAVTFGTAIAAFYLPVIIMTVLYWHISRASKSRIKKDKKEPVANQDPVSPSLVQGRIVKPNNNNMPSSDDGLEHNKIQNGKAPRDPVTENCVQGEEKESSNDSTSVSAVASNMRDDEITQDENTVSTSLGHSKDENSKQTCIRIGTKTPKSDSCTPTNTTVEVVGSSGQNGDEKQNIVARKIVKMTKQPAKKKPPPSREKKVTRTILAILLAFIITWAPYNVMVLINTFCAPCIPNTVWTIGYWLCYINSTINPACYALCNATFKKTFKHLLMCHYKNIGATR

[16] = target: α1A (Homo sapiens, UniProt P35348); assay: cell-based; format: cell-based
α1A, sequence (P35348 whole entry): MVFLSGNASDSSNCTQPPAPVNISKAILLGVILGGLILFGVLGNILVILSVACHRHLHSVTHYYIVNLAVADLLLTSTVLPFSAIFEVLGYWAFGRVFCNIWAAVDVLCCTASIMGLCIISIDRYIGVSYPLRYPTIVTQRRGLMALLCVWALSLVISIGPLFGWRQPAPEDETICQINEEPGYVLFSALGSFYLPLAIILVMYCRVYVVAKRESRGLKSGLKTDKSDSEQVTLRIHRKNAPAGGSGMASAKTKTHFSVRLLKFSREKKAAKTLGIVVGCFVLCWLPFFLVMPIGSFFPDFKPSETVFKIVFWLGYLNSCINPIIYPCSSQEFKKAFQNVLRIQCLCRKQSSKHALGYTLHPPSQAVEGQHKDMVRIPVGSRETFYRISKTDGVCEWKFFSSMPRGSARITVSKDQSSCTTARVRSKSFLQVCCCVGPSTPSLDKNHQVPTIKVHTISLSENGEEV

[17] = system: C57BL/6J mice; assay: m-CPP-induced anxiety model, marble burying test; format: in vivo; conditions: p.o.
[18] = target: T13, LCK (Homo sapiens, UniProt P06239); assay: biochemical; conditions: 10 μmol/L, read-out: Antagonist JDIC-127 @10 μmol/L
T13 construct: purchased ICE Bioscience ICESTP™ SafetyOne44 Panel

[19] = target: T14, DAT (Homo sapiens, UniProt Q01959); assay: SafetyOne44 panel: DAT; format: cell-based; conditions: 10 μmol/L, read-out: Antagonist JDIC-127 @10 μmol/L
T14 construct: purchased ICE Bioscience ICESTP™ SafetyOne44 Panel

[20] = antagonist mode, 10 μmol/L, read-out: Antagonist JDIC-127 @10 μmol/L

T1 sequence (P10275 whole entry): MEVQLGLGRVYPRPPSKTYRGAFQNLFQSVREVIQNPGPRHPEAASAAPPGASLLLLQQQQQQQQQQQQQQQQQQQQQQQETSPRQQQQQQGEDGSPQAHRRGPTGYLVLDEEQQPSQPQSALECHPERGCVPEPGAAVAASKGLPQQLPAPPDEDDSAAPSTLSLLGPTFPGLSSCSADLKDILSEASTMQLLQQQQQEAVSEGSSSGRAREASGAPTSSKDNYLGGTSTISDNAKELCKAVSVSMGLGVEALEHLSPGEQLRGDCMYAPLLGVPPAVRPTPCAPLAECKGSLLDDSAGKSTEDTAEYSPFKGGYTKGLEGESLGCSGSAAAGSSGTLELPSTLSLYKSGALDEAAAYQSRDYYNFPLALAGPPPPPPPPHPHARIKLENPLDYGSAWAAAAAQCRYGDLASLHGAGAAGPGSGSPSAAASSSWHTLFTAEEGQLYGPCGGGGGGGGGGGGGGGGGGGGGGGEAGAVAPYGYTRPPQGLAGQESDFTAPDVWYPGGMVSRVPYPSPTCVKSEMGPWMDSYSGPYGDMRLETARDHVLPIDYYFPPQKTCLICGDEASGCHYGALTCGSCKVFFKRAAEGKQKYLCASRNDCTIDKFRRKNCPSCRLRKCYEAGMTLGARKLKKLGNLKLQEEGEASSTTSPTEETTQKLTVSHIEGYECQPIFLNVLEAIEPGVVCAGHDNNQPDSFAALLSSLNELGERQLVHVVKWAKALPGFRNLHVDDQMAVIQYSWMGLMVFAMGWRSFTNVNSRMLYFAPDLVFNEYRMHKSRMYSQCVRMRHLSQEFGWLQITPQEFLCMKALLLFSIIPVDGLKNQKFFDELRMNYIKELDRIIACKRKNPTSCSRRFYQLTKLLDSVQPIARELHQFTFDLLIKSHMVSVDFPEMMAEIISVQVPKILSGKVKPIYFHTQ

SMILES: O=c1c2c3nc(n2Cc2ccc(Cl)cc2)Oc2ccc(F)c(c2)OCCCCCCn3c(=O)n1CCCO [JDIC-127]
- Agonist JDIC-127 @10 μmol/L ([1]; agonist mode): 0.06%
- inhibition at 10 µM [1, 20]: -7.02%
- inhibition at 10 µM [2]: 15.5%
- Agonist JDIC-127 @10 μmol/L ([3]; agonist mode): 7.81%
- inhibition at 10 µM [3, 20]: -21.6%
- Agonist JDIC-127 @10 μmol/L ([4]; agonist mode): 0.67%
- inhibition at 10 µM ([4]; antagonist mode, read-out: Antagonist JDIC-127 @10 μmol/L): -0.45%
- Agonist JDIC-127 @ 5 μmol/L ([5]; nAChRα4β2, agonist mode): 0.97%
- Antagonist JDIC-127 @5 μmol/L ([5]; nAChRα4β2, antagonist mode): 2.92%
- IC50 [6]: 1.86 nM
- Agonist JDIC-127 @10 μmol/L ([7]; CCK1, agonist mode): –3.36%
- inhibition at 10 µM ([7]; CCK1, antagonist mode, read-out: Antagonist JDIC-127 @10 μmol/L): 6.16%
- Agonist JDIC-127 @10 μmol/L ([8]; CB1, agonist mode): 33.32%
- inhibition at 10 µM ([8]; CB1, antagonist mode, 10 μmol/L, read-out: Antagonist JDIC-127 @10 μmol/L): -9.83%
- Agonist JDIC-127 @ 5 μmol/L ([9]; agonist mode): 0.74%
- Antagonist JDIC-127 @5 μmol/L ([9]; antagonist mode): 26.35%
- Agonist JDIC-127 @10 μmol/L ([10]; agonist mode): 0.05%
- inhibition at 10 µM [10, 20]: 4.73%
- inhibition at 10 µM [11]: 1.38%
- Agonist JDIC-127 @10 μmol/L ([12]; β1, agonist mode): –1.87%
- inhibition at 10 µM ([12]; β1, antagonist mode, 10 μmol/L, read-out: Antagonist JDIC-127 @10 μmol/L): 1.84%
- effect of mutation on inhibitory potency of JDIC-127 [13]: significantly diminished
- immobility time in FST [14]: significantly reduced
- Agonist JDIC-127 @10 μmol/L ([15]; M2, agonist mode): 2.82%
- inhibition at 10 µM ([15]; M2, antagonist mode, 10 μmol/L, read-out: Antagonist JDIC-127 @10 μmol/L): -0.26%
- Agonist JDIC-127 @10 μmol/L ([16]; agonist mode): 0.76%
- inhibition at 10 µM [16, 20]: -3.05%
- number of buried marbles, MBT [17]: reduced
- inhibition at 10 µM [18]: 29.4%
- inhibition at 10 µM [19]: -57.6%
